What was measured:
HDAC1 = HDAC1 (Homo sapiens, UniProt Q13547); test: HDAC1 inhibitory activity; assay type: biochemical
HDAC2 = HDAC2 (Homo sapiens, UniProt Q92769); test: HDAC2 inhibitory activity; assay type: biochemical
[1] = tested on: colorectal adenocarcinoma (HT-29) cell line; test: cells; assay type: cell-based; details: for IC50: Homo sapiens, HT-29, 48 h, read-out: IC50 HT-29
[2] = tested on: neuroblastoma (SH-SY5Y) cell line; test: cells; assay type: cell-based; details: for IC50: Homo sapiens, SH-SY5Y, 48 h, read-out: IC50 SH-SY5Y
[3] = HDAC1 IC50 (as printed in docking Table 3), unrounded values repeated in Table 3
[4] = IC50 HDAC1, mean ± S.E. of three independent experiments
[5] = HDAC2 IC50 (as printed in docking Table 4), unrounded values repeated in Table 4
[6] = IC50 HDAC2, mean ± S.E. of three independent experiments
[7] = ratio of IC50 values vs Gefitinib

Sequence of HDAC1 (Q13547 whole entry): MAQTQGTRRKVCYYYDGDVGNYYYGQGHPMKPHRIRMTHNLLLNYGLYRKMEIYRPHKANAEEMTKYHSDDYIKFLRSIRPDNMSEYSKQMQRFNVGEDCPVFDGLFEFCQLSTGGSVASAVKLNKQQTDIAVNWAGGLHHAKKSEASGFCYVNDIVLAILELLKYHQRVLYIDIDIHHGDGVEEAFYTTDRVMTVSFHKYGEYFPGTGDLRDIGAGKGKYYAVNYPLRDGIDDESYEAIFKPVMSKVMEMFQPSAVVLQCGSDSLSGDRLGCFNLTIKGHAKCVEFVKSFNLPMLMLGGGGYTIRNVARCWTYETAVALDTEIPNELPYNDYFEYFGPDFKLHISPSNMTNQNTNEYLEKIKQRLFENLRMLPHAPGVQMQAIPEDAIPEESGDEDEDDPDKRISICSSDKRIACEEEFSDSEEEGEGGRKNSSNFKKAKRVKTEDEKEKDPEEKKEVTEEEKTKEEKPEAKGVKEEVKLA
Sequence of HDAC2 (Q92769 whole entry): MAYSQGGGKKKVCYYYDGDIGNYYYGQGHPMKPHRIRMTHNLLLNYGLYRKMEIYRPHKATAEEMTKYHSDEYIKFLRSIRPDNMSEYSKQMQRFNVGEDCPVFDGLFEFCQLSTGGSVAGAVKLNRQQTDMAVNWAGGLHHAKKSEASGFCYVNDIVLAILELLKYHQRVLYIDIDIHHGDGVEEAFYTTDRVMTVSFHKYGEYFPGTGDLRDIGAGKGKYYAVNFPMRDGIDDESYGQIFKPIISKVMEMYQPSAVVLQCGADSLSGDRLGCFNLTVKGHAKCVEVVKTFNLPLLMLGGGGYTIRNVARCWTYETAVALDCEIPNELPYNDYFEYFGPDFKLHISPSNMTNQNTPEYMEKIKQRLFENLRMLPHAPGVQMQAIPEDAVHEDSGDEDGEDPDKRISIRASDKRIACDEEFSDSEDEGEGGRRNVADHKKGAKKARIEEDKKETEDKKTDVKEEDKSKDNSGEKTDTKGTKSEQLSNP

| SMILES | IC50 (HDAC1; [3]) | IC50 (HDAC1; [4]) | IC50 (HDAC2; [5]) | IC50 (HDAC2; [6]) | IC50 [1] | IC50 [2] | fold enhanced efficiency than reference drug Gefitinib against SH-SY5Y cells [2, 7] | times more potent than Gefitinib toward HT-29 cells [1, 7] | fold worsening of effectiveness against HDAC1 on shifting hydrazide ZBG from para (7a) to meta (8b) (HDAC1; 8b relative to 7a) |
| --- | --- | --- | --- | --- | --- | --- | --- | --- | --- |
| Cc1nc(C)c(C(=O)Nc2ccc(C(=O)NN)cc2)nc1C [Compound 7a, N-(4-(Hydrazinecarbonyl)phenyl)-3,5,6-Trimethylpyrazine-2-Carboxamide] | 114 nM | 114.3 ± 0.44 nM | 53.7 nM | 53.7 ± 0.05 nM | 15.1 ± 0.43 µM | 1.6 ± 0.04 µM | 4.7 fold |  |  |
| Cc1nc(C)c(C(=O)Nc2cccc(C(=O)NO)c2)nc1C [Compound 8a, N-(3-(Hydroxycarbamoyl)phenyl)-3,5,6-Trimethylpyrazine-2-Carboxamide] | 468 nM |  | 169 nM | 168.8 ± 0.13 nM | 1.96 ± 0.05 µM | 4.27 ± 0.12 µM |  | 2.5 times |  |
| Cc1nc(C)c(C(=O)Nc2ccc(CC(=O)NN)cc2)nc1C [Compound 7c, N-(4-(2-Hydrazinyl-2-Oxoethyl)phenyl)-3,5,6-Trimethylpyrazine-2-Carboxamide] | 264 nM | 263.5 ± 1.27 nM | 205 nM | 205.4 ± 0.43 nM | 6.11 ± 0.17 µM | 43.5 ± 1.21 µM |  |  |  |
| Cc1nc(C)c(C(=O)Nc2cccc(C(=O)NN)c2)nc1C [Compound 8b, N-(3-(Hydrazinecarbonyl)phenyl)-3,5,6-Trimethylpyrazine-2-Carboxamide] | 1800 nM | 1800.1 ± 0.45 nM | 113 nM | 112.9 ± 0.09 nM | 3.25 ± 0.09 µM | 28.5 ± 0.8 µM |  |  | 15.7 fold |
| Cc1nc(C)c(C(=O)Nc2ccc(CC(=O)NO)cc2)nc1C [Compound 7b, N-(4-(2-(Hydroxyamino)-2-Oxoethyl)phenyl)-3,5,6-Trimethylpyrazine-2-Carboxamide] | 2430 nM | 2434.7 ± 1.25 nM | 132 nM | 132.3 ± 0.12 nM | 4.57 ± 0.13 µM | 67 ± 1.91 µM |  |  |  |

From article PMC7008064 (Drug Design, Development and Therapy, 2020)
